Data: PubChem BioAssay AID179 (DTP/NCI, 2004)
Calls of active or inactive are those of the source.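 How the source made its calls: active means compounds giving half or more protection of infected cells from virus-caused growth loss, again on retest; inactive means the rest.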

Tested on: CEM cells HIV-1 protection, formazan growth assay
Assay: NCI AIDS Antiviral Assay
Conditions: for IC50: measured here: growth of uninfected CEM cells
How it was run: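 Soluble formazan readout of cell growth; CEM cells ± HIV-1; 5 drug concs. ≥50% protection → retest; ≥50% again = moderately active; reproducible 100% = confirmed active.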

| SMILES | outcome | EC50 | IC50 |
| --- | --- | --- | --- |
| CN(C)C(=Nc1nc(=[N+](C)C)ss1)N(C)C | inactive |  |  |
| CC(C)(C)c1cc(C2c3cc4c(cc3OC(O)(CO)C2C(=O)O)OCO4)cc(C(C)(C)C)c1O (stereo not drawn) (tested in a mixture with another compound) | inactive |  |  |
| c1ccc2sc(CN(Cc3nc4ccccc4s3)Cc3nc4ccccc4s3)nc2c1 |  | > 40.7 µM | > 40.7 µM |
| CC(C)N1[C@@H]2CCCC[C@H]2N(C(C)C)[P+]1=O |  | > 200 µM | > 200 µM |
| Cc1ccccc1NC(=O)C(=O)c1c(O)c2ccc(O)cc2oc1=O |  | > 741 µM | 331 µM |
| CC(C)(C)OC(=O)NC1CCCC1C(O)(C1=CCCC1)C1=CCCC1 (stereo not drawn) |  | > 200 µM | 120 µM |
| NS(=O)(=O)c1cc2c(cc1Cl)NCNS2(=O)=O |  | > 832 µM | 437 µM |
| Cc1cc(=O)c2c(O)cc3c(c2o1)CC=C(COC1OC(COC2OC(CO)C(O)C(O)C2O)C(O)C(O)C1O)CO3 (stereo not drawn) |  | > 417 µM | > 417 µM |
| CCCCc1ccc(Nc2cc(=O)n(C)c(=O)[nH]2)cc1 |  | > 200 µM | > 200 µM |
| COC(=O)[C@](C)(Cc1ccccc1)NC(=O)[C@@H](C)N1[C@@H](c2ccccc2)COC1(C)C |  | > 200 µM | > 200 µM |
| Cc1cc(N)c2ccccc2[n+]1CCCCCCCCCC[n+]1c(C)cc(N)c2ccccc21 |  | > 24.5 µM | 0.155 µM |
| COc1ccc2c(c1)c(=O)c1c(NCCN(C)C)ccc3c(=O)n(CCN(C)C)c(=O)n2c31 |  | 0.0204 µM | 0.0324 µM |
| Nc1ccccc1C(=O)NNC(=O)c1ccccc1N |  | > 200 µM | > 200 µM |
| CCC(=O)NC(Nc1ccccc1F)(C(F)(F)F)C(F)(F)F |  | > 200 µM | > 200 µM |
| COC1/C=C/OC2(C)Oc3c(C)c(O)c4c(O)c(c(/C=N/N5CCOCC5)c(O)c4c3C2=O)NC(=O)C(C)=C/C=C/C(C)C(O)C(C)C(O)C(C)C(OC(C)=O)C1C (stereo not drawn) |  | > 200 µM | 35.5 µM |
| CC(=O)NC(CC(C)C)C(=O)NC(Cc1ccccc1)C(=S)N1CCCC1 (stereo not drawn) |  | > 174 µM | > 174 µM |
| Cc1ccccc1C1OC(=O)c2ccccc21 (stereo not drawn) |  | > 158 µM | 97.7 µM |
| COc1ccc(-[n+]2nc(S(=O)(=O)O)c(/C=C/c3ccc(N(C)C)cc3)cc2C#N)cc1 |  | > 151 µM | > 151 µM |
| CCOC(=O)c1cc(-c2ccc(OC)cc2)c([N+](=O)[O-])[nH]1 |  | > 200 µM | 25.7 µM |
| CC1(C)OCC2OC(n3cnc4c(N)nc(Cl)nc43)C(OS(C)(=O)=O)C2O1 (stereo not drawn) |  | > 11.2 µM | 7.59 µM |
| CCS(CC)(CC)CC1CCCC2=CCC(P(=O)(c3ccccc3)c3ccccc3)CC21 (stereo not drawn) |  | > 15.5 µM | > 15.5 µM |

| SMILES | outcome | EC50 | IC50 |
| --- | --- | --- | --- |
| COC1/C=C/OC2(C)Oc3c(C)c(O)c4c(O)c(cc(OCC(=O)N5CCC(O)(Cc6ccccc6)CC5)c4c3C2=O)NC(=O)/C(C)=C/C=CC(C)C(O)C(C)C(O)C(C)C(OC(C)=O)C1C (stereo not drawn) |  | > 112 µM | 30.9 µM |
| Cn1cc2c(=O)n3ncn(-c4ccc(Br)cc4)c3nc2n1 |  | > 200 µM | > 200 µM |
| Cc1cc(C)nc(NS(=O)(=O)c2ccc(Nc3c4ccccc4nc4c(C(=O)N5CCN(CCOS(C)(=O)=O)CC5)ccc(Cl)c34)cc2)n1 |  | > 30.9 µM | > 30.9 µM |
| COc1ccc(-c2onc(-c3c(C)cc(C)cc3C)c2C2=NCCN2)cc1 |  | > 72.4 µM | > 72.4 µM |
| CCCCCCCCCCCCSS(=O)(=O)c1ccc(C)cc1 |  | > 20.4 µM | 13.8 µM |
| CC(C)c1ccc2c(c1)CCC1C2(C)CCCC1(C)C(O)c1ccccc1 (stereo not drawn) |  | > 200 µM | 38 µM |
| Sc1ccc(Nc2c3ccccc3nc3ccccc23)cc1 |  | > 200 µM | 14.5 µM |
| O=C(Nc1ccccc1)c1cc(S(=O)(=O)Nc2n[nH]c(=O)n2-c2ccccc2)c(S)cc1Cl |  | 89.1 µM | > 200 µM |
| Cc1c([C@H](C)[C@@H]2NC[C@@H](C)C[C@H]2O)ccc2c1C[C@H]1[C@H]2CC=C2C[C@@H](O)CC[C@@]21C |  | > 1.82 µM | > 1.82 µM |
| S=C(SSC(=S)N1CCOCC1)N1CCOCC1 |  | > 20 µM | 0.724 µM |
| c1ccc(N2N=C3N(c4ccccc4)C2N3c2ccccc2)cc1 |  | > 200 µM | 30.2 µM |
| CCCCC(=O)Oc1c(Cl)cc(C(=CCC[C@H]2CC[C@@]3(C)[C@@H](CC[C@@H]4[C@@H]3CC[C@]3(C)[C@@H](C(C)CCCC(C)C)CC[C@@H]43)C2)c2cc(Cl)c(OC(=O)CCCC)c(C(=O)O)c2)cc1C(=O)O (stereo partly drawn) |  | 74.1 µM | > 100 µM |
| CC(=O)c1cc2sc3ccccc3c2[nH]1 |  | > 200 µM | > 200 µM |
| O=S(=O)(O)c1ccc(-c2nnc(-c3ccccn3)nc2-c2ccc(S(=O)(=O)O)o2)o1 |  | > 200 µM | > 200 µM |
| CCC(=O)NC(NNS(=O)(=O)c1ccc(C)cc1)(C(F)(F)F)C(F)(F)F |  | > 200 µM | 35.5 µM |
| Cc1nn(C)c2nc(=O)n(C)c(=O)c-2[n+]1[O-] |  | > 200 µM | 26.9 µM |
| CCc1[nH]c(=O)c2oc3cc4ccccc4cc3c2c1C(=O)O |  | > 200 µM | > 200 µM |
| CC1=C(N(C)C)C(=O)c2nc3n(c2C1=O)CCC3OC(N)=O (stereo not drawn) |  | > 200 µM | 11.2 µM |
| Nc1ccn(C2CC(F)C(CO)O2)c(=O)n1 (stereo not drawn) |  | 0.148 µM | 427 µM |
| CCOC(=O)CCCSCCCC(=O)CCCSCCCC(=O)OCC |  | > 447 µM | 309 µM |
| COc1cc(/C=C/c2cc(O)cc(C3OC(CO)C(O)C(O)C3O)c2)ccc1O (stereo not drawn) | inactive |  |  |

| SMILES | outcome | EC50 | IC50 |
| --- | --- | --- | --- |
| Nc1ccc(Cl)c(-c2nc3ccccc3[nH]2)c1 |  | > 77.6 µM | > 77.6 µM |
| NC1CSSCC(C(=O)O)NC1=O (stereo not drawn) |  | > 61.7 µM | > 61.7 µM |
| CCCCCCCCCCCCC/C=C/[C@H]1[C@@H](C(=O)OC)N1S(=O)c1ccc(C)cc1 (stereo partly drawn) |  | > 200 µM | 74.1 µM |
| C=C1C(=O)OC2C1C(OC(=O)/C(=C/C)COC(C)=O)CC1(CO1)C1C(OC(=O)/C(=C/C)CO)C=C(C)C21 (stereo not drawn) | inactive |  |  |
| CCC12C=CCN3CCC4(c5cc(C(c6ccccn6)c6cc7ccccc7n6C)c(OC)cc5N(C)C4C(O)(C(=O)OC)C1OC(C)=O)C32 (stereo not drawn) |  | > 10.7 µM | > 10.7 µM |
| N#C/C(=C\c1ccc(O)c(O)c1)C(=O)NCCN1CCN(C(=O)/C(C#N)=C/c2ccc(O)c(O)c2)CC1 |  | > 200 µM | 26.3 µM |
| CC/C(Cl)=N\OC(=O)Nc1ccc(F)cc1F |  | > 20 µM | 3.47 µM |
| Nc1nc(NCCOCP(=O)(O)O)c([N+](=O)[O-])c(=O)[nH]1 |  | 178 µM | > 200 µM |
| [N-]=[N+]=Nc1c(-c2ccccc2)c(=O)n(-c2ccccc2)c2ccccc12 | inactive |  |  |
| CN(C)c1ccc2nc(C(=O)O)c(=O)n(C)c2c1 |  | > 200 µM | > 200 µM |
| C/C(=N\NS(=O)(=O)c1ccc(C)cc1)C(CN1CCOCC1)C(c1ccccc1)c1c(O)c2ccccc2oc1=O (stereo not drawn) |  | > 42.7 µM | 19.1 µM |
| CCOC(=O)c1c(SCCCN2CCCCC2)n(-c2ccccc2)c(=S)n(-c2ccccc2)c1=O |  | > 37.2 µM | 6.31 µM |
| CSc1n[nH]c(NC(=O)c2ccccc2Cl)n1 |  | > 132 µM | > 132 µM |
| CCC1CN2CCC3(c4ccccc4)CC(C(=O)OC)=CC1C23 (stereo not drawn) |  | > 251 µM | 38.9 µM |
| COC(=O)CCC=C(c1cc(Cl)c(OC)c(C(=O)OC)c1)c1cc(Cl)c(OC)c(C(=O)OC)c1 |  | > 200 µM | 44.7 µM |
| COc1ccc(N2CCOCC2)cc1 | inactive |  |  |
| CN(C)S(=O)(=O)c1cc(Cl)cc(Cc2cc(Cl)cc(S(=O)(=O)N(C)C)c2O)c1O |  | > 74.1 µM | 4.37 µM |
| O=c1oc2ccccc2c2nc3ccc(Cl)cc3cc12 |  | > 200 µM | 5.13 µM |
| CC(C)OP(=O)(Cc1cc(C(C)(C)C)c(O)c(C(C)(C)C)c1)OC(C)C |  | > 67.6 µM | > 67.6 µM |
| CCCCC(C(=O)NCCNC(=O)CCC(=O)N(C)O)C(=O)NCCNC(=O)CCC(=O)N(C)O |  | > 200 µM | 112 µM |
| COC(=O)C1CCc2c1c(=O)n1c([nH]c3ccccc31)c2C#N (stereo not drawn) |  | > 40.7 µM | > 40.7 µM |

| SMILES | outcome | EC50 | IC50 |
| --- | --- | --- | --- |
| COC(=O)N1CC(=O)C(C(=O)NC23CC4CC(CC(C4)C2)C3)C1 (stereo not drawn) |  | > 776 µM | 141 µM |
| COC(=O)C1(C)CCCC2(C)C1CCC1(O)C(O)C(C(C)C)=CCC21 (stereo not drawn) |  | > 200 µM | 56.2 µM |
| O=[N+]([O-])c1ccccc1N=Nc1c(O)[nH]c2ccc(S(=O)(=O)O)cc12 |  | > 200 µM | > 200 µM |
| Cc1cc([N+](=O)[O-])ccc1N=NC(=O)NNc1ccc([N+](=O)[O-])cc1C |  | > 200 µM | 33.9 µM |
| O=C(O)c1ccc(CSc2ccc(Cl)cc2)c([N+](=O)[O-])c1 |  | > 209 µM | 95.5 µM |
| C=CCC1(c2ccccc2)Oc2ccccc2-n2cccc2C1=O (stereo not drawn) |  | 7.08 µM | 10.5 µM |
| CCOC(=O)CC[P+](c1ccccc1)(c1ccccc1)c1ccccc1 |  | > 200 µM | 21.4 µM |
| NC(N)=NCc1ccc2c(c1)OCO2 |  | > 200 µM | 166 µM |
| CCCCOP(=O)(/N=C/OC(C)C)OCCCC |  | > 200 µM | > 200 µM |
| CC(=O)OC12C3C4C1C1C2C3C41OC(C)=O (stereo not drawn) |  | > 200 µM | > 200 µM |
| Cc1cccc(C(C)C)c1NC(=O)C(=O)CC(=O)c1sc(Nc2ccccc2Cl)nc1C |  | > 200 µM | > 200 µM |
| CC(O)C(NCNC(=O)C1=C(O)C2(O)C(=O)C3=C(O)c4c(O)cccc4C(C)(O)C3CC2C(N(C)C)C1=O)C(=O)O (stereo not drawn) |  | > 37.2 µM | > 37.2 µM |
| Cc1c2ccccc2nc(CS(C)=O)[n+]1[O-] (stereo not drawn) |  | > 200 µM | > 200 µM |
| CC(=O)Nc1ccc(/C=C(\NC(=O)c2ccccc2)C(=O)NNS(=O)(=O)c2ccc(C)cc2)cc1 |  | > 52.5 µM | > 52.5 µM |
| CC(O)C1(CNc2cc(Cl)nc(N)n2)CCCC1 (stereo not drawn) |  | > 200 µM | 74.1 µM |
| OC[C@@H]1C2CCC([C@@H]1CO)C2(Cc1ccccc1)Cc1ccccc1 |  | > 89.1 µM | > 89.1 µM |
| Cc1ccc(S(=O)(=O)c2scc(-c3ccccc3)c2C)cc1 |  | > 200 µM | 107 µM |
| CCOc1cc2c(cc1O)/C(=N\OC)C[C@@H]1[C@@H]2CC[C@]2(C)[C@@H](O)CC[C@@H]12 |  | > 200 µM | 0.0724 µM |
| OC1c2ccccc2CC12Cc1ccccc1C2 (stereo not drawn) |  | > 200 µM | 145 µM |
